Measurements reported in patent publication US9113629B2, “4-amino-6-(4-substituted-phenyl)-picolinates and 6-amino-2-(4-substituted-phenyl)-pyrimidine-4-carboxylates and their use as herbicides” (DOW AGROSCIENCES LLC, priority 2013, dated 2015).

Tested on: Key Grass and Sedge Weeds as well as Grass Crops
Experiment: Post-emergent Test II herbicidal activity (Table 6)
Format: in vivo
Conditions: post-emergence, 336 h, CYPES: yellow nutsedge (Cyperus esculentus), 140 g ai/ha, read-out: Visual Growth Reduction (%) 14 Days After Application, CYPES
Procedure, shortened: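 Plants grown in Metro-Mix 360 (pH 6.0–6.8) in a greenhouse (~15 h photoperiod, 23–29 °C day) to first or second true leaf stage, then sprayed with compound in acetone/DMSO/aqueous crop-oil-surfactant carrier at 187 L/ha by track sprayer. Injury visually scored 0–100% versus untreated plants after 14 d.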

Structure (SMILES) | pest or weed control at 140 g/ha [%]
COC(=O)c1nc(-c2ccc(I)cc2)c(F)c(N)c1Cl [Compound 118, Methyl 4-amino-6-(4-iodophenyl)-3-chloro-5-fluoropicolinate] | 95 to 100

Same assay, conditions: post-emergence, 336 h, DIGSA: crabgrass (Digitaria sanguinalis), 70 g ai/ha, read-out: Visual Growth Reduction (%) 14 Days After Application, DIGSA

Structure (SMILES) | pest or weed control at 70 g/ha [%]
COC(=O)c1nc(-c2ccc(I)cc2)c(F)c(N)c1Cl [Compound 118, Methyl 4-amino-6-(4-iodophenyl)-3-chloro-5-fluoropicolinate] | 75 to 84

Same assay, conditions: post-emergence, 336 h, DIGSA: crabgrass (Digitaria sanguinalis), 140 g ai/ha, read-out: Visual Growth Reduction (%) 14 Days After Application, DIGSA

Structure (SMILES) | pest or weed control at 140 g/ha [%]
COC(=O)c1nc(-c2ccc(I)cc2)c(F)c(N)c1Cl [Compound 118, Methyl 4-amino-6-(4-iodophenyl)-3-chloro-5-fluoropicolinate] | 85 to 94

Same assay, conditions: post-emergence, 336 h, ECHCG: barnyardgrass (Echinochloa crus-galli), 70 g ai/ha, read-out: Visual Growth Reduction (%) 14 Days After Application, ECHCG

Structure (SMILES) | pest or weed control at 70 g/ha [%]
COC(=O)c1nc(-c2ccc(I)cc2)c(F)c(N)c1Cl [Compound 118, Methyl 4-amino-6-(4-iodophenyl)-3-chloro-5-fluoropicolinate] | 95 to 100

Same assay, conditions: post-emergence, 336 h, ECHCG: barnyardgrass (Echinochloa crus-galli), 140 g ai/ha, read-out: Visual Growth Reduction (%) 14 Days After Application, ECHCG

Structure (SMILES) | pest or weed control at 140 g/ha [%]
COC(=O)c1nc(-c2ccc(I)cc2)c(F)c(N)c1Cl [Compound 118, Methyl 4-amino-6-(4-iodophenyl)-3-chloro-5-fluoropicolinate] | 95 to 100

Same assay, conditions: post-emergence, 336 h, ORYSA: rice (Oryza sativa), crop, 70 g ai/ha, read-out: Visual Growth Reduction (%) 14 Days After Application, ORYSA

Structure (SMILES) | pest or weed control at 70 g/ha [%]
COC(=O)c1nc(-c2ccc(I)cc2)c(F)c(N)c1Cl [Compound 118, Methyl 4-amino-6-(4-iodophenyl)-3-chloro-5-fluoropicolinate] | 30 to 44

Same assay, conditions: post-emergence, 336 h, ORYSA: rice (Oryza sativa), crop, 140 g ai/ha, read-out: Visual Growth Reduction (%) 14 Days After Application, ORYSA

Structure (SMILES) | pest or weed control at 140 g/ha [%]
COC(=O)c1nc(-c2ccc(I)cc2)c(F)c(N)c1Cl [Compound 118, Methyl 4-amino-6-(4-iodophenyl)-3-chloro-5-fluoropicolinate] | 45 to 59

Same assay, conditions: post-emergence, 336 h, SETFA: giant foxtail (Setaria faberi), 70 g ai/ha, read-out: Visual Growth Reduction (%) 14 Days After Application, SETFA

Structure (SMILES) | pest or weed control at 70 g/ha [%]
COC(=O)c1nc(-c2ccc(I)cc2)c(F)c(N)c1Cl [Compound 118, Methyl 4-amino-6-(4-iodophenyl)-3-chloro-5-fluoropicolinate] | 45 to 59

Same assay, conditions: post-emergence, 336 h, SETFA: giant foxtail (Setaria faberi), 140 g ai/ha, read-out: Visual Growth Reduction (%) 14 Days After Application, SETFA

Structure (SMILES) | pest or weed control at 140 g/ha [%]
COC(=O)c1nc(-c2ccc(I)cc2)c(F)c(N)c1Cl [Compound 118, Methyl 4-amino-6-(4-iodophenyl)-3-chloro-5-fluoropicolinate] | 60 to 74

Same assay, conditions: post-emergence, 336 h, SORVU: grain sorghum (Sorghum vulgare), 70 g ai/ha, read-out: Visual Growth Reduction (%) 14 Days After Application, SORVU

Structure (SMILES) | pest or weed control at 70 g/ha [%]
COC(=O)c1nc(-c2ccc(I)cc2)c(F)c(N)c1Cl [Compound 118, Methyl 4-amino-6-(4-iodophenyl)-3-chloro-5-fluoropicolinate] | 95 to 100

Same assay, conditions: post-emergence, 336 h, SORVU: grain sorghum (Sorghum vulgare), 140 g ai/ha, read-out: Visual Growth Reduction (%) 14 Days After Application, SORVU

Structure (SMILES) | pest or weed control at 140 g/ha [%]
COC(=O)c1nc(-c2ccc(I)cc2)c(F)c(N)c1Cl [Compound 118, Methyl 4-amino-6-(4-iodophenyl)-3-chloro-5-fluoropicolinate] | 95 to 100

Same assay, conditions: post-emergence, 336 h, TRZSS (wheat, Triticum aestivum), crop, 70 g ai/ha, read-out: Visual Growth Reduction (%) 14 Days After Application, TRZSS

Structure (SMILES) | pest or weed control at 70 g/ha [%]
COC(=O)c1nc(-c2ccc(I)cc2)c(F)c(N)c1Cl [Compound 118, Methyl 4-amino-6-(4-iodophenyl)-3-chloro-5-fluoropicolinate] | 75 to 84

Same assay, conditions: post-emergence, 336 h, TRZSS (wheat, Triticum aestivum), crop, 140 g ai/ha, read-out: Visual Growth Reduction (%) 14 Days After Application, TRZSS

Structure (SMILES) | pest or weed control at 140 g/ha [%]
COC(=O)c1nc(-c2ccc(I)cc2)c(F)c(N)c1Cl [Compound 118, Methyl 4-amino-6-(4-iodophenyl)-3-chloro-5-fluoropicolinate] | 75 to 84

Same assay, conditions: post-emergence, 336 h, ZEAMX: maize, corn (Zea mays), crop, 70 g ai/ha, read-out: Visual Growth Reduction (%) 14 Days After Application, ZEAMX

Structure (SMILES) | pest or weed control at 70 g/ha [%]
COC(=O)c1nc(-c2ccc(I)cc2)c(F)c(N)c1Cl [Compound 118, Methyl 4-amino-6-(4-iodophenyl)-3-chloro-5-fluoropicolinate] | 60 to 74

Same assay, conditions: post-emergence, 336 h, ZEAMX: maize, corn (Zea mays), crop, 140 g ai/ha, read-out: Visual Growth Reduction (%) 14 Days After Application, ZEAMX

Structure (SMILES) | pest or weed control at 140 g/ha [%]
COC(=O)c1nc(-c2ccc(I)cc2)c(F)c(N)c1Cl [Compound 118, Methyl 4-amino-6-(4-iodophenyl)-3-chloro-5-fluoropicolinate] | 85 to 94
